Source: patent publication US8058261B2, “3′-ethynylcytidine derivative” (Taiho Pharmaceutical Co., Ltd., priority 2006, dated 2011)
Structures can show the parent of a compound that is named as a salt.

How the values were obtained:
[1] = Serum ECyd level after peroral administration; format: in vivo; settings: perorally administered to Donryu male rats; compared with ECyd
Protocol: Separately, the compound of the present invention was perorally administered to Donryu male rats, and serum ECyd level was measured.

[2] = system: Yoshida Sarcoma cell line (rat ascites tumor); test: Antitumor effect when perorally administered, Donryu rat subcutaneous tumor implantation system; format: in vivo, Donryu rats; settings: perorally once a day for seven days at 12 μmol/kg/day; tumor weight seven days after grouping vs non-treatment group; ECyd equimolar
Protocol: Pharmacological Test Example 1 Antitumor Effect of the Compound of the Present Invention When Perorally Administered to Donryu Rat Subcutaneous Tumor Implantation System
Cells of a Yoshida Sarcoma cell line (rat ascites tumor) intraperitoneally subcultured in Donryu rats (Charles River Laboratories Japan, Inc.) were implanted subcutaneously to 5-week-old Donryu rats in the back thereof at 2×10^4 cells/0.2 mL. Four days after implantation, the body weight of each rat was measured, and the rats were grouped so that the average body weight was nearly equal between the groups (7 rats per group).
Each of the ECyd derivatives was dissolved or suspended in 0.5% hydroxypropylmethylcellulose solution, and the resultant solution or suspension was perorally administered to each rat every day from the day of grouping once a day for seven days at a dose of 12 μmol/kg/day. The ECyd derivative was evaluated three times. As a control in each test, ECyd was used in an equimolar amount as the ECyd derivative.
Seven days after the day of grouping, the tumor weight of the rat in the pharmaceutical agent administration group was measured. The tumor weight of the rat to which no pharmaceutical agent had been administered (non-treatment group) was also measured. The average tumor weight of each of the pharmaceutical agent administration group and the non-treatment group was calculated. Tumor growth inhibition rate (IR) was determined through use of the following equation, whereby antitumor effect was evaluated. IR(%)=[1−(TWtest)/(TWcont)]×100 (Equation 1) [wherein TWtest and TWcont represent the average tumor weight of the pharmaceutical agent administration group and the non-treatment group, respectively].

human tumor cells = settings: intravenous 0.25 mg/kg for ten continuous days; gastric, colon, pancreatic, esophageal, bile duct, lung, breast, renal cancer strains; cited from earlier work

C#C[C@@]1(O)[C@@H](CO[Si](C)(C)C(C)(C)C)O[C@@H](n2ccc(NC(=O)OC(C)(C)C)nc2=O)[C@@H]1O
melting point: 103 to 110 °C

C#C[C@@]1(O)[C@@H](CO[Si](CC)(CC)CC)O[C@@H](n2ccc(N)nc2=O)[C@@H]1O
melting point: 202 to 204 °C

C#C[C@@]1(O)[C@@H](CO[Si](C)(C)c2ccccc2)O[C@@H](n2ccc(N)nc2=O)[C@@H]1O
melting point: 171 to 173 °C

C#C[C@@]1(O)[C@@H](CO[Si](C)(C)C(C)(C)C(C)C)O[C@@H](n2ccc(N)nc2=O)[C@@H]1O
melting point: > 197 °C (dec.)

C#C[C@@]1(O)[C@@H](CO)O[C@@H](n2ccc(N)nc2=O)[C@@H]1O[Si](C)(C)C(C)(C)C(C)C (as salt: trifluoroacetic acid salt) [Compound 13, 1-(2-O-Dimethylthexylsilyl-3-C-ethynyl-1-β-D-ribofuranosyl)cytosine trifluoroacetic acid salt]
melting point: 182 °C

C#C[C@@]1(O)[C@@H](CO[Si](c2ccccc2)(c2ccccc2)C(C)(C)C)O[C@@H](n2ccc(N)nc2=O)[C@@H]1O (hydrate or solvate)
melting point: 210 to 213 °C

C#C[C@@]1(O)[C@@H](CO[Si](C)(C)C(C)(C)C)O[C@@H](n2ccc(N)nc2=O)[C@@H]1O [Compound 1, 1-[5-O-(tert-Butyldimethylsilyl)-3-C-ethynyl-β-D-ribofuranosyl]cytosine]
serum ECyd level (concentration in blood) [1]: particularly high concentration in blood
melting point: 251 to 256 °C (dec.)
Tumor growth inhibition rate IR (%) [2]: 94.6%

C#C[C@@]1(O)[C@@H](CO[Si](C(C)C)(C(C)C)C(C)C)O[C@@H](n2ccc(N)nc2=O)[C@@H]1O [Compound 3, 1-[5-O-Triisopropylsilyl-3-C-ethynyl-β-D-ribofuranosyl]cytosine]
serum ECyd level (concentration in blood) [1]: particularly high concentration in blood
melting point: > 219 °C (dec.)
Tumor growth inhibition rate IR (%) [2]: 93.4%

C#C[C@@]1(O)[C@@H](CO[Si](C)(C)CCCCCCCC)O[C@@H](n2ccc(N)nc2=O)[C@@H]1O [Compound 4, 1-[5-O-(Dimethyl-n-octylsilyl)-3-C-ethynyl-β-D-ribofuranosyl]cytosine]
serum ECyd level (concentration in blood) [1]: particularly high concentration in blood
melting point: 175 to 177 °C (dec.)

C#C[C@@]1(O)[C@@H](CO)O[C@@H](n2ccc(N)nc2=O)[C@@H]1O[Si](C)(C)C(C)(C)C [Compound 9, 1-[2-O-(tert-Butyldimethylsilyl)-3-C-ethynyl-1-β-D-ribofuranosyl]cytosine]
serum ECyd level (concentration in blood) [1]: particularly high concentration in blood
Tumor growth inhibition rate IR (%) [2]: 99.6%

C#C[C@@]1(O)[C@@H](CO)O[C@@H](n2ccc(N)nc2=O)[C@@H]1O[Si](C(C)C)(C(C)C)C(C)C [Compound 11, 1-(2-O-Triisopropylsilyl-3-C-ethynyl-1-β-D-ribofuranosyl)cytosine]
serum ECyd level (concentration in blood) [1]: particularly high concentration in blood
Tumor growth inhibition rate IR (%) [2]: 88.3%

C#C[C@@]1(O)[C@@H](CO[Si](C)(C)C(C)(C)C(C)C)O[C@@H](n2ccc(N)nc2=O)[C@@H]1O[Si](C)(C)C(C)(C)C(C)C [Compound 12, 1-(2,5-bis-O-Dimethylthexylsilyl-3-C-ethynyl-1-β-D-ribofuranosyl)cytosine]
serum ECyd level (concentration in blood) [1]: particularly high concentration in blood
melting point: 106 to 108 °C
Tumor growth inhibition rate IR (%) [2]: 91.5%

C#C[C@@]1(O)[C@@H](CO)O[C@@H](n2ccc(N)nc2=O)[C@@H]1O[Si](C)(C)C(C)(C)C(C)C [Compound 14, 1-(2-O-Dimethylthexylsilyl-3-C-ethynyl-1-β-D-ribofuranosyl)cytosine]
serum ECyd level (concentration in blood) [1]: particularly high concentration in blood
melting point: 218 °C
Tumor growth inhibition rate IR (%) [2]: 99.8%

C#C[C@@]1(O)[C@@H](CO[Si](C)(C)C(C)(C)C)O[C@@H](n2ccc(NC(=O)CCCCCC)nc2=O)[C@@H]1O [Compound 15, 1-[5-O-(tert-Butyldimethylsilyl)-3-C-ethynyl-β-D-ribofuranosyl]-4-N-heptanoylcytosine]
serum ECyd level (concentration in blood) [1]: particularly high concentration in blood
melting point: 134 to 137 °C

C#C[C@@]1(O)[C@@H](CO[Si](C)(C)C(C)(C)C)O[C@@H](n2ccc(NC(=O)CN(C)C)nc2=O)[C@@H]1O [Compound 17, 1-[5-O-(tert-Butyldimethylsilyl)-3-C-ethynyl-β-D-ribofuranosyl]-4-N-(N,N-dimethylglycyl)cytosine]
serum ECyd level (concentration in blood) [1]: particularly high concentration in blood
melting point: 180 to 185 °C

C#C[C@@]1(O)[C@@H](CO[Si](C(C)C)(C(C)C)C(C)C)O[C@@H](n2ccc(NC(=O)CN(C)C)nc2=O)[C@@H]1O [Compound 18, 1-[5-O-(Triisopropylsilyl)-3-C-ethynyl-β-ribofuranosyl]-4-N-(N,N-dimethylglycyl)cytosine]
serum ECyd level (concentration in blood) [1]: particularly high concentration in blood
melting point: 146 to 148 °C

C#C[C@@]1(O)[C@@H](CO)O[C@@H](n2ccc(N)nc2=O)[C@@H]1O [ECyd, 3′-ethynylcytidine]
anti-tumor effect (human tumor cells): excellent anti-tumor effect more greatly than any of fluoropyrimidine-based drugs
Tumor growth inhibition rate IR (%) [2]: 46.6%
